Measurements published in US20240150375A1, “MACROCYCLIC COMPOUNDS AND USES THEREOF” (Theseus Pharmaceuticals, Inc., priority 2021, published 2024).

Legend:
Ba/F3 EGFR-Del19/C797S = Ba/F3 EGFR-Del19/C797S (Homo sapiens, UniProt P00533, C797S, cells depend on it, form not given); assay: Ba/F3 viability assay (CellTiter-Glo), EGFR-Del19/C797S (DC); assay type: cell-based; conditions: Ba/F3 EGFR-Del19/C797S anti-proliferation; read-out: BAF3 DC IC50
Description: (§1) Inhibition of cell proliferation can be studied using Ba/F3 viability assays, including the Promega CellTiter-Glo cell viability assay. This assay can be used to study the effect of compounds described herein in the following assays: (1) Ba/F3 Parental; (2) Ba/F3 EGFR-Del19/T790M; (3); Ba/F3 EGFR-Del19/C797S; and (4) Ba/F3 EGFR-Del119/T790M/C797S.
(§2) One hundred thirty six compounds were studied using the kinase (EGFR) and BA/F3 assays described herein, with more than 60% of the tested compounds providing IC50<50 nM values in all six assays. Accordingly, compounds of the invention are a new general class of kinase inhibitors, including potent inhibitors of EGFR mutants.
(§3) Exemplary kinase inhibition (Kinase) and anti-proliferation activity (Ba/F3) data are shown in Table 1 for certain compounds of the invention and are categorized according to the below legend.

[1] = biological target: Ba/F3 EGFR-Del19/T790M/C797S (Homo sapiens, UniProt P00533, T790M/C797S, cells depend on it, form not given); assay: Ba/F3 viability assay (CellTiter-Glo), EGFR-Del19/T790M/C797S (DTC); assay type: cell-based; conditions: Ba/F3 EGFR-Del19/T790M/C797S anti-proliferation; read-out: BAF3 DTC IC50
Description: as §1, §2, §3

EGFR^L858R/T790M/C797S = EGFR^L858R/T790M/C797S (Homo sapiens, UniProt P00533, C797S/L858R/T790M); assay: HTRF KinEASE-TK in vitro kinase assay, EGFR L858R/T790M/C797S (LTC); assay type: biochemical; conditions: EGFR L858R/T790M/C797S kinase inhibition
Description: (§4) The biological activity of compounds described herein can be studied according to standard methods known in the art. Methods can be used to study inhibition of EGFR, including mutant forms of EGFR comprising L858R, T790M, C797S, and/or Del19 mutations, or any combination thereof (e.g., L858R single, double, or triple mutants). Exemplary, non-limiting methods are described herein.
(§5) Assays using an in vitro kinase assay kit (HTRF KinEASE-TK kit) can be used to study the inhibitory activity of compounds described herein with respect to EGFR mutants such as ECFR^L858R, EGFR^L858R/T790M, and EGFR^L858R/T790M/C797S.
as §2, §3

EGFR^L858R/T790M = EGFR^L858R/T790M (Homo sapiens, UniProt P00533, L858R/T790M); assay: HTRF KinEASE-TK in vitro kinase assay, EGFR L858R/T790M (LT); assay type: biochemical; conditions: EGFR L858R/T790M kinase inhibition
Description: as §4, §5, §2, §3

Ba/F3 EGFR-Del19/T790M = Ba/F3 EGFR-Del19/T790M (Homo sapiens, UniProt P00533, T790M, cells depend on it, form not given); assay: Ba/F3 viability assay (CellTiter-Glo), EGFR-Del19/T790M (DT); assay type: cell-based; conditions: Ba/F3 EGFR-Del19/T790M anti-proliferation; read-out: BAF3 DT IC50
Description: as §1, §2, §3

EGFR^L858R = EGFR^L858R (Homo sapiens, UniProt P00533, L858R); assay: HTRF KinEASE-TK in vitro kinase assay, EGFR L858R (L); assay type: biochemical; conditions: EGFR L858R kinase inhibition
Description: as §4, §5, §2, §3

EGFR^L858R/T790M, sequence (P00533 25-1210 T790M/L858R): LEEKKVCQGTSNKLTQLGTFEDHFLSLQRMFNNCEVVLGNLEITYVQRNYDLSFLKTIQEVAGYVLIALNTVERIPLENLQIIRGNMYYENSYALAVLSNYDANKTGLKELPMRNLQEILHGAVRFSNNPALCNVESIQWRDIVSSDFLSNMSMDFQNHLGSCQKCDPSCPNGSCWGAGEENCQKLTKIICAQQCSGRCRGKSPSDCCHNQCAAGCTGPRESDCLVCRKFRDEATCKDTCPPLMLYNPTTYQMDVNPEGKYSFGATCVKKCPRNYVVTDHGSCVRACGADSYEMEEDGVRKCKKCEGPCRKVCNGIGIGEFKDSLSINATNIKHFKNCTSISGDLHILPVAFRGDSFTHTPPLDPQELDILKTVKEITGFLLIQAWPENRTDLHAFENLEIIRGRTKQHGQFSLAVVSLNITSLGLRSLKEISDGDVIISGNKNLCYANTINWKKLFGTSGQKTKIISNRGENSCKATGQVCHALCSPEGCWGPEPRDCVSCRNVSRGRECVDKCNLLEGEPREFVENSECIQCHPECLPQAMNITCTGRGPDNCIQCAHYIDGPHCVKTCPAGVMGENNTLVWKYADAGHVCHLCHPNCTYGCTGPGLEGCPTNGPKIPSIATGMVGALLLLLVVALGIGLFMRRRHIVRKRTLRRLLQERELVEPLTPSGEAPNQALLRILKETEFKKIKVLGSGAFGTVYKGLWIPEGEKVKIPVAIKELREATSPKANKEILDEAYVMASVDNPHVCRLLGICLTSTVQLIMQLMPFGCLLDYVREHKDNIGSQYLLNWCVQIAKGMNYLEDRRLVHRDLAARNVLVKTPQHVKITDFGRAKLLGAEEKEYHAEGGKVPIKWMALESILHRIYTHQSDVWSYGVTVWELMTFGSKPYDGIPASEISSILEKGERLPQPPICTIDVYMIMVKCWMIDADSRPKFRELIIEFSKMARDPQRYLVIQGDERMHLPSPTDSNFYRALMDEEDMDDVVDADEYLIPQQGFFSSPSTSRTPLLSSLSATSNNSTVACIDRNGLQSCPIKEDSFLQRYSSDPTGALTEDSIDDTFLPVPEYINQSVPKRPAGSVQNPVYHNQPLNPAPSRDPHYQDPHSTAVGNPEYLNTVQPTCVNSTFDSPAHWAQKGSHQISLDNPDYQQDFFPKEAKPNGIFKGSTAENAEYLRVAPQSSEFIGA
Ba/F3 EGFR-Del19/C797S, sequence (P00533 with tags, fused parts or gaps DEL746-750/C797S, form open): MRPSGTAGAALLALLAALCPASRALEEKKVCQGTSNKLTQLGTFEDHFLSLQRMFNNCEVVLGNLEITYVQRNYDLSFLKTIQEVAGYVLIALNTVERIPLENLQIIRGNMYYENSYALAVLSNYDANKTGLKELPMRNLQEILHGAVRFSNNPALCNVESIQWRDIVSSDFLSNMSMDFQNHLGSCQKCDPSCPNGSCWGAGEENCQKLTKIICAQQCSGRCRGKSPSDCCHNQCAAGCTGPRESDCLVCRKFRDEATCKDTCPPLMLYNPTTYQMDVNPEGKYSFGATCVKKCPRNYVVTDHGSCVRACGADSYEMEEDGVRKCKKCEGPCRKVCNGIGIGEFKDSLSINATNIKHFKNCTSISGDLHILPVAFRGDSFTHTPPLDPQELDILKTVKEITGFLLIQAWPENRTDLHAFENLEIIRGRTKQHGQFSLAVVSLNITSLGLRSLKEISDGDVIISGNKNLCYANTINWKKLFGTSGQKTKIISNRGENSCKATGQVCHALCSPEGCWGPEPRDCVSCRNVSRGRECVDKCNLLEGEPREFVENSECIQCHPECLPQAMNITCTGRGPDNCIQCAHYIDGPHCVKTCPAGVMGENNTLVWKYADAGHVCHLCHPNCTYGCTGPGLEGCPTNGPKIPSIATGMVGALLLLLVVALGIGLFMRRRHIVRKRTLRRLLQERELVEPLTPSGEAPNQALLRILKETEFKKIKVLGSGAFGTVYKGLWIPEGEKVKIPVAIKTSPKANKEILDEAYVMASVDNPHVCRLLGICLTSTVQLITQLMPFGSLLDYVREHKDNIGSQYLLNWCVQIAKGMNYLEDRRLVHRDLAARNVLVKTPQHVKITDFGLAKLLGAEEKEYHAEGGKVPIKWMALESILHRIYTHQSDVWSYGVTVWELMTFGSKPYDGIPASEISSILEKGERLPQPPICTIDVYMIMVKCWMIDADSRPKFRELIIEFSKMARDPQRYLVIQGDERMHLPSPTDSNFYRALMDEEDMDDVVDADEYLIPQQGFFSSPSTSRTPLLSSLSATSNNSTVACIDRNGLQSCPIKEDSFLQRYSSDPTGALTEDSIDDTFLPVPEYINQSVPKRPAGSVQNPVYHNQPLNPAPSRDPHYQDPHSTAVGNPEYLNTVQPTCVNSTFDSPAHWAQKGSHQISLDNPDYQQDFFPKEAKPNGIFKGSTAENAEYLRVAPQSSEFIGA
EGFR^L858R/T790M/C797S, sequence (P00533 25-1210 T790M/C797S/L858R): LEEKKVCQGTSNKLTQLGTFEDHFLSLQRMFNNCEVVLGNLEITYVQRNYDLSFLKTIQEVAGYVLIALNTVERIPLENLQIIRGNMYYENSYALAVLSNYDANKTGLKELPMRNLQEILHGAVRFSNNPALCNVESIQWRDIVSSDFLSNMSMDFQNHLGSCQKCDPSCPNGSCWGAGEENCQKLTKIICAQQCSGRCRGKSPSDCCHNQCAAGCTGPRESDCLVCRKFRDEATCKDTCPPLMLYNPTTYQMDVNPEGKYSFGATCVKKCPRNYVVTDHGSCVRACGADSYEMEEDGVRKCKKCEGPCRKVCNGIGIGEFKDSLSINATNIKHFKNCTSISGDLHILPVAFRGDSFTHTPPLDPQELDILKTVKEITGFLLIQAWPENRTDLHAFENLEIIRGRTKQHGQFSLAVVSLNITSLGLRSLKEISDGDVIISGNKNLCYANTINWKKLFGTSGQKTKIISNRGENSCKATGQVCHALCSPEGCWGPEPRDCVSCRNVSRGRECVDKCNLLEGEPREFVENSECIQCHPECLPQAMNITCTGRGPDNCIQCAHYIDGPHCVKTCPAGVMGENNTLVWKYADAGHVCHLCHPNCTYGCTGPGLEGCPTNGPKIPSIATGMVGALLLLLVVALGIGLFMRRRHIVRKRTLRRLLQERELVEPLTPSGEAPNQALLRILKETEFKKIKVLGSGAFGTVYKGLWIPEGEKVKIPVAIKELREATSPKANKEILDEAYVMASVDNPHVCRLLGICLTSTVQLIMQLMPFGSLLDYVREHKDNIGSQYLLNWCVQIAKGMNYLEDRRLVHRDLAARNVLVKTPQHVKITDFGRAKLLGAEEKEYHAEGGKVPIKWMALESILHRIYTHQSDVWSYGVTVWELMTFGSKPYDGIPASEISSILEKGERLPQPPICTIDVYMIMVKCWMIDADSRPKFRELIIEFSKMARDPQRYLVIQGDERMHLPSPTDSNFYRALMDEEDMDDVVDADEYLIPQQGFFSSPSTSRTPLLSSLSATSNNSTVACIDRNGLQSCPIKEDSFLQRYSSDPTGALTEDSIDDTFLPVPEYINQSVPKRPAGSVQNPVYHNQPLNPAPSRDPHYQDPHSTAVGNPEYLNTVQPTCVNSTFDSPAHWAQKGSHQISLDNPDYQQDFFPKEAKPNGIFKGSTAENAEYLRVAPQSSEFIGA
Ba/F3 EGFR-Del19/T790M/C797S, sequence (P00533 with tags, fused parts or gaps DEL746-750/T790M/C797S, form open): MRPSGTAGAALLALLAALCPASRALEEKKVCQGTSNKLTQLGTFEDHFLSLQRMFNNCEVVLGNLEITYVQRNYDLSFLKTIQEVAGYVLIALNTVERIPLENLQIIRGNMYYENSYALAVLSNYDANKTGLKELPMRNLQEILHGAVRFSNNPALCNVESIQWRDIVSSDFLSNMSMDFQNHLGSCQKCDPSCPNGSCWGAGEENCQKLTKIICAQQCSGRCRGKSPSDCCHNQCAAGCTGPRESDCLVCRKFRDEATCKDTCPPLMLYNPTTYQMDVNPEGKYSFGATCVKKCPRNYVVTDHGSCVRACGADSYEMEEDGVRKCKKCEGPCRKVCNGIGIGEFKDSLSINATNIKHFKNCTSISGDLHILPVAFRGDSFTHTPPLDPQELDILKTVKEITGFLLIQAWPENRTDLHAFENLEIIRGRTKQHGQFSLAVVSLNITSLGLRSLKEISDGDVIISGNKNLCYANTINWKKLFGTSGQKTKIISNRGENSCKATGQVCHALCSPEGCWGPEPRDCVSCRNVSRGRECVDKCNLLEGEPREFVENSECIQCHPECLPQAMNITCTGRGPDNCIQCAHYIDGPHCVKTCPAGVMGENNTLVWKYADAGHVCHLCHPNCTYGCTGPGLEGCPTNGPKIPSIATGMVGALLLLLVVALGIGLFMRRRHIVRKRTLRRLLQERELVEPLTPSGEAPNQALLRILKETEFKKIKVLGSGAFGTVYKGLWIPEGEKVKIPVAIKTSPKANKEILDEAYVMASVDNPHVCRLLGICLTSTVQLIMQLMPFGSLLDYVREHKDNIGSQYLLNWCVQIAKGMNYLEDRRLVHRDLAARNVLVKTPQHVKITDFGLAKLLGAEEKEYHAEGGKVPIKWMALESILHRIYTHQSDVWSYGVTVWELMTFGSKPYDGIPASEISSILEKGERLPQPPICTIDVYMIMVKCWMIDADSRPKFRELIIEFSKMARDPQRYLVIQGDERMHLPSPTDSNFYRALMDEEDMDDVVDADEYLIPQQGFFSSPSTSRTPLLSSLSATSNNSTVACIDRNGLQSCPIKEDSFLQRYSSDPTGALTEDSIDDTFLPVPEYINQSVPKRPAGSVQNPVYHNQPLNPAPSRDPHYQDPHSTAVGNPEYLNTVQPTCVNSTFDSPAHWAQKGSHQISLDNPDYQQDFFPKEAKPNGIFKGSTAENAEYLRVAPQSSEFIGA

Row | Compound | GI50 (Ba/F3 EGFR-Del19/C797S) [nM] | GI50 [1] [nM] | IC50 (EGFR^L858R/T790M/C797S) [nM] | IC50 (EGFR^L858R/T790M) [nM] | GI50 (Ba/F3 EGFR-Del19/T790M) [nM] | IC50 (EGFR^L858R) [nM]
1 | CC(C)n1cc(-c2cnc3cc2O[C@@H](C)CCOc2c(cnn2C)-c2nccc(n2)N3)c(OCC(F)F)n1 [(15)] | < 50 | < 50 | < 50 | < 50 | < 50 | < 50
2 | CCOc1nn(C2CCN(C)CC2F)cc1-c1cnc2cc1O[C@@H](C)CCOc1c(cnn1C)-c1nccc(n1)N2 (stereo partly drawn) [(16)] | < 50 | < 50 | < 50 | < 50 | < 50 | < 50
3 | CCOc1nn(C2CC2)cc1-c1cnc2cc1O[C@@H](C)CCOc1c(cnn1C)-c1nccc(n1)N2 [(18)] | < 50 | < 50 | < 50 | < 50 | < 50 | < 50
4 | CCOc1nn(C2CC2CN2CCOCC2)cc1-c1cnc2cc1O[C@@H](C)CCOc1c(cnn1C)-c1nccc(n1)N2 (stereo partly drawn) [(20)] | < 50 | < 50 | < 50 | < 50 | < 50 | < 50
5 | CCOc1nn(CC(F)F)cc1-c1cnc2cc1O[C@@H](C)CCOc1c(cnn1C)-c1nccc(n1)N2 [(29)] | < 50 | < 50 | < 50 | < 50 | < 50 | < 50
6 | CCOc1nn(C2CC3CCC(C2)O3)cc1-c1cnc2cc1O[C@@H](C)CCOc1c(cnn1C)-c1nccc(n1)N2 (stereo partly drawn) [(30)] | < 50 | < 50 | < 50 | < 50 | < 50 | < 50
7 | C[C@H]1CCOc2c(cnn2C)-c2nccc(n2)Nc2cc(c(-c3cn(C4CC4)nc3OCC(F)(F)F)cn2)O1 [(32)] | < 50 | < 50 | < 50 | < 50 | < 50 | < 50
8 | CCOc1nn(C2CC(C)(C)OC(C)(C)C2)cc1-c1cnc2cc1O[C@@H](C)CCOc1c(cnn1C)-c1nccc(n1)N2 [(33)] | 50 to 100 | < 50 | < 50 | < 50 | 50 to 100 | < 50
9 | CCOc1nn(-c2ccncc2)cc1-c1cnc2cc1O[C@@H](C)CCOc1c(cnn1C)-c1nccc(n1)N2 [(34)] | < 50 | < 50 | < 50 | < 50 | 50 to 100 | < 50
10 | CCOc1ncc(C)cc1-c1cnc2cc1O[C@@H](C)CCOc1c(cnn1C)-c1nccc(n1)N2 [(35)] | ≥ 1000 | 100 to 1000 | 100 to 1000 | < 50 | 100 to 1000 | ≥ 1000
11 | C[C@H]1CCOc2c(cnn2C)-c2nccc(n2)Nc2cc(c(-c3cn(C4CN(C5COC5)C4)nc3OCCF)cn2)O1 [(36)] | < 50 | < 50 | < 50 | < 50 | < 50 | < 50
12 | CCOc1nn(C2CC3CCC(C2)N3C)cc1-c1cnc2cc1O[C@@H](C)CCOc1c(cnn1C)-c1nccc(n1)N2 (stereo partly drawn) [(37)] | < 50 | < 50 | < 50 | < 50 | < 50 | < 50
13 | CCOc1nn(C2CCN(C3COC3)CC2)cc1-c1cnc2cc1O[C@@H](C)CCOc1c(cnn1C)-c1nccc(n1)N2 [(40)] | < 50 | < 50 | < 50 | < 50 | < 50 | < 50
14 | CCCOc1nn(C2CC2)cc1-c1cnc2cc1O[C@@H](C)CCOc1c(cnn1C)-c1nccc(n1)N2 [(42)] | < 50 | < 50 | < 50 | < 50 | < 50 | < 50
15 | C[C@H]1CCOc2c(cnn2C)-c2nccc(n2)Nc2cc(c(-c3cn(C4CC4)nc3OCCF)cn2)O1 [(43)] | < 50 | < 50 | < 50 | < 50 | < 50 | < 50
